Results as given in article PMC6054150, “Cytokinin perception in potato: new features of canonical players” (Journal of Experimental Botany, 2018).
Where “and” joins values, the source holds several entries; their conditions need not be identical. Equal entries are not always repeated. Where two headings read alike, the source gives them in different places. Values belong to the molecule of their own block, whether it stands above or below them.

Key:
StHK4b = StHK4b (Solanum tuberosum, UniProt A0A2U9K786); experiment: Plant membrane (tobacco microsome) hormone binding assay with [3H]trans-zeatin, StHK4b
Sequence of StHK4b (A0A2U9K786 entry or part of it): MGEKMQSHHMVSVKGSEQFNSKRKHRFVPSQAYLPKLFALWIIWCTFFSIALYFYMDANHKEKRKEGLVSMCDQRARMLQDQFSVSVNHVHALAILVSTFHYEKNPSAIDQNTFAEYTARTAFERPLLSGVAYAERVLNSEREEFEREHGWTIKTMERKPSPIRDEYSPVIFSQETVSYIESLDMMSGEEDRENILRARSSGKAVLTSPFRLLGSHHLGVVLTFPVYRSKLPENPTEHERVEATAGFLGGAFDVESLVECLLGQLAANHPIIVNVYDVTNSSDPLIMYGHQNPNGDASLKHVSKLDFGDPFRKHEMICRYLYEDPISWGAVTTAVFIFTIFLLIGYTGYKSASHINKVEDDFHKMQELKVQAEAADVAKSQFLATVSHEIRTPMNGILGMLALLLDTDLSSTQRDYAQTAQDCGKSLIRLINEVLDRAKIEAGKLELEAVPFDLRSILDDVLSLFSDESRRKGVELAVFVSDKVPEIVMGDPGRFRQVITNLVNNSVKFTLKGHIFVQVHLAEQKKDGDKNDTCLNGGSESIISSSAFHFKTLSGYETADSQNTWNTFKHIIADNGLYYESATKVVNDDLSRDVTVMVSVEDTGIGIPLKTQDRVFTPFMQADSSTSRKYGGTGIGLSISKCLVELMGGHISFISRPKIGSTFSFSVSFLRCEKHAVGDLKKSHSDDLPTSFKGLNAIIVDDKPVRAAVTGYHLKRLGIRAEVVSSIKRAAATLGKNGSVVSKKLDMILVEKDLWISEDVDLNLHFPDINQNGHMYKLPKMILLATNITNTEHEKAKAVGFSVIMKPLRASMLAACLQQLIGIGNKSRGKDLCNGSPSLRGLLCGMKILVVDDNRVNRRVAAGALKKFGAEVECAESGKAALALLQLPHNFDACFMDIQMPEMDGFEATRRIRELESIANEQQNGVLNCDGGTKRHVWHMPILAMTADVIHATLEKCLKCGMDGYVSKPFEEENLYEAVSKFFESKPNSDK
Description: (§1) The transient transformation of tobacco (Nicotiana benthamiana Domin) leaves was accomplished according to [Sparkes et al. (2006)]. Eight-week-old tobacco plants were infiltrated with a mixture of Agrobacterium tumefaciens carrying CK receptor genes fused to green fluorescent protein (GFP) and the A. tumefaciens helper strain p19 ([Voinnet et al., 2003]), and the expression of receptor genes was checked after 5–6 d with a fluorescence microscope, Axio Imager Z2 (Carl Zeiss Microscopy GmbH), before leaves were processed further for microsome isolation.
(§2) All manipulations were done at 4 °C. Tobacco leaves 6 d after infiltration were homogenized in buffer (3 ml per 1 g of fresh weight) containing 100 mM Tris–HCl (pH 8.0), 2 mM Na2-EDTA, 50 mM KCl, 1 mM DTT, and 1 mM phenylmethylsulfonyl fluoride. The homogenate was filtered through Miracloth (Calbiochem, San Diego, CA, USA), and the filtrate was centrifuged for 5 min at 5000 g. Then supernatant was centrifuged for 40 min at 15000 g. The microsome pellet was resuspended in 50 mM KCl–10% glycerol and the microsome suspension was stored at −70 °C.
(§3) Ligand binding studies were performed in PBS as described previously ([Romanov et al., 2005]; [Lomin et al., 2015]). Studies of pH influence on hormone binding were performed in 50 mM MES–KOH (pH 5–7) or Tris–HCl (pH 7–9) buffers with 50 mM KCl. Kd for [^3H]trans-zeatin (tZ) binding to different receptors was determined in saturation assays followed by data analysis in Scatchard plots.
(§4) To analyse ligand-binding properties of the receptors, a recently developed plant membrane assay system ([Lomin et al., 2015]) was used. Predicted potato CK receptor genes were cloned into pB7FWG2 vectors for transient expression in tobacco leaves. […] Instead of full-length receptor, we clond a genomic sequence of the StHK3a sensory module flanked by transmembrane domains. From the transiently transformed tobacco leaves, a microsomal fraction enriched with individual potato receptors was obtained. The binding assays were conducted using this fraction and tritium-labeled CK. In aggregate, we tested four putative receptors belonging to all three clades: StHK2a, StHK3a (sensory module, further designated as StHK3aSM), StHK4a, and StHK4b.
(§5) First, we determined the pH-dependence of hormone binding to these receptors within the pH range of 5–9 (Fig. 5).
(§6) The interaction of a hormone with a receptor is characterized by the equilibrium dissociation constant (Kd) of the ligand–receptor complex. Kd values were determined by the dose-dependent binding of labeled trans-zeatin to StHKs, and the results were processed by the Scatchard method (Supplementary Fig. S7; [Lomin and Romanov, 2008]).
(§7) Different CKs are usually present in the plant: trans- and cis-zeatins (tZ and cZ), isopentenyladenine (iP), and dihydrozeatin (DZ). In addition to natural CKs, there are many synthetic ones. […] We studied the ligand specificity of putative receptors in competitive experiments where binding of labeled CK was carried out in the presence of various concentrations of certain unlabeled ligands. Based on the obtained competition curves (Supplementary Fig. S8), the apparent Kd values were determined for each ligand as described ([Lomin and Romanov, 2008]). We analysed the interaction of StHKs with six CKs, including five natural ones as well as the synthetic urea-type CK thidiazuron (Table 3).

StHK4a = StHK4a (Solanum tuberosum, UniProt A0A2U9K790); experiment: Plant membrane (tobacco microsome) hormone binding assay with [3H]trans-zeatin, StHK4a
Sequence of StHK4a (A0A2U9K790 entry or part of it): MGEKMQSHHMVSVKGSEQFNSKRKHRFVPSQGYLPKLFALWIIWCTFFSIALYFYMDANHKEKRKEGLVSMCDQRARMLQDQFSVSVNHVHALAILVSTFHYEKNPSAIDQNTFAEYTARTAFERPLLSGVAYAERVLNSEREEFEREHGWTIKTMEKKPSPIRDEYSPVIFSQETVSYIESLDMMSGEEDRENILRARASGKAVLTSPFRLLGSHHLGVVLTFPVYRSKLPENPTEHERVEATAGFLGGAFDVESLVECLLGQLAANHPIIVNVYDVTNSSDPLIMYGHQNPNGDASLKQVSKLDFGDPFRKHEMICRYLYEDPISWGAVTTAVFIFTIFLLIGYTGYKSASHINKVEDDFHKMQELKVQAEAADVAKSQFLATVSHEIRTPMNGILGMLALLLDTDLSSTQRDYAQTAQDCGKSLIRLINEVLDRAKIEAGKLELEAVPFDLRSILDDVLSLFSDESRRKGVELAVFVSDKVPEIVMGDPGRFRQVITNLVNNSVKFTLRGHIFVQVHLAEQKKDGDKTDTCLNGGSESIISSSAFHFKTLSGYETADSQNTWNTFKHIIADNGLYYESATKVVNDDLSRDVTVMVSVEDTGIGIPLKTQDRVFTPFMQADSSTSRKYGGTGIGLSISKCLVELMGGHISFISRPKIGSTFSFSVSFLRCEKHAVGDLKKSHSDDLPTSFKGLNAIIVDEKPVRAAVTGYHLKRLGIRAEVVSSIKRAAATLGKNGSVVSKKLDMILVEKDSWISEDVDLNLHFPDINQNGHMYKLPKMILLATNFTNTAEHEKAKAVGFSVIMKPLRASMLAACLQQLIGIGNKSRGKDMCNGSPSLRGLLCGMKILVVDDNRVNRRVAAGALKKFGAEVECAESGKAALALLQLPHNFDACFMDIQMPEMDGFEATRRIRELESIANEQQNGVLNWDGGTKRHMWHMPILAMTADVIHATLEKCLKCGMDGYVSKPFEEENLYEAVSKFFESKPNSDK
Description: as §1, §2, §3, §4, §5, §6, §7

StHK3aSM = StHK3aSM (Solanum tuberosum, UniProt A0A2U9K793); experiment: Plant membrane (tobacco microsome) hormone binding assay with [3H]trans-zeatin, StHK3a sensory module
Sequence of StHK3aSM (A0A2U9K793 entry or part of it): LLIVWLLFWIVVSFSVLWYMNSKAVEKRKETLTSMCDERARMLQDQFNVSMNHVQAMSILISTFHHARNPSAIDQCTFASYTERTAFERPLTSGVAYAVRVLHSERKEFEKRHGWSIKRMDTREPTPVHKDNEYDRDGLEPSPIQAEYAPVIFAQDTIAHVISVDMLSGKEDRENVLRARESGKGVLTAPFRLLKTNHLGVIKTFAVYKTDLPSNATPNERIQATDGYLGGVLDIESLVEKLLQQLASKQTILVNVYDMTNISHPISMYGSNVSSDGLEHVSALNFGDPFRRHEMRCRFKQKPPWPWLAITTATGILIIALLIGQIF
Description: as §1, §2, §3, §4, §5, §6, §7

StHK2a = StHK2a (Solanum tuberosum, UniProt A0A2P1D005); experiment: Plant membrane (tobacco microsome) hormone binding assay with [3H]trans-zeatin, StHK2a
Sequence of StHK2a (A0A2P1D005 entry or part of it): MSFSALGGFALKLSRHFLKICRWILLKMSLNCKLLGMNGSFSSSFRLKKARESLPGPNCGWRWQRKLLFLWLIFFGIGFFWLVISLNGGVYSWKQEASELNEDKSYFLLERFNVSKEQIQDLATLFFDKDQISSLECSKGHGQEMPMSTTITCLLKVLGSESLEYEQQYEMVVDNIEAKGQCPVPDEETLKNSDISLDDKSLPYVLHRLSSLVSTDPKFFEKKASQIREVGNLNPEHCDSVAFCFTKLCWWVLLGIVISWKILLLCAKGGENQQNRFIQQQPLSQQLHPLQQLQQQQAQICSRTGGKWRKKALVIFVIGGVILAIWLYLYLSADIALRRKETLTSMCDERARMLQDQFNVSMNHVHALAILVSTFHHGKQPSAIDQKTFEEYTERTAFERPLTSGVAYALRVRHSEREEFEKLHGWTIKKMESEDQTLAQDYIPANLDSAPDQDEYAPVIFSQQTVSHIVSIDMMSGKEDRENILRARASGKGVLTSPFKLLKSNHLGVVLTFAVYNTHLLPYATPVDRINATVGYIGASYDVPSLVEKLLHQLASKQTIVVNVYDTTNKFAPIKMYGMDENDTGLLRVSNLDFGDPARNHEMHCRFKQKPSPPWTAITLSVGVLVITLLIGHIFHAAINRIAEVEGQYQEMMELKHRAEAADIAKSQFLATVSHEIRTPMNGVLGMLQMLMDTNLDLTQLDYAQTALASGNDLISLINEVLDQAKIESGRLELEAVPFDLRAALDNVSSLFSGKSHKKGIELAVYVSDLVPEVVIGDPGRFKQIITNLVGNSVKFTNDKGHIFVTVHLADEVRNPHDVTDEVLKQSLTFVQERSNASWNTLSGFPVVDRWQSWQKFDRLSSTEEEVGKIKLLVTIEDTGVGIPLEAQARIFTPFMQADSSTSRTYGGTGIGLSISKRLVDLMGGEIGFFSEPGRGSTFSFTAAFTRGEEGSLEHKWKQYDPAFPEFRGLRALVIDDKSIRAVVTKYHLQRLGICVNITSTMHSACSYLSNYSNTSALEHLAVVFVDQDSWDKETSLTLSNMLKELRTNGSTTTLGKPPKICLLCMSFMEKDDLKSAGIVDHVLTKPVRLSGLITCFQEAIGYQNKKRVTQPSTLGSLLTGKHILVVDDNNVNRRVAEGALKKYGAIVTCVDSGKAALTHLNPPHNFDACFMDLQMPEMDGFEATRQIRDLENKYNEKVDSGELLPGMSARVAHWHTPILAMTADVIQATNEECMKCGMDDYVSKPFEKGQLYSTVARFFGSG
Description: as §1, §2, §3, §4, §5, §6, §7

StRR-A genes = experiment: qRT-PCR of type A response regulator gene expression after BA treatment of potato plants; format: in vivo, Solanum tuberosum; settings: 1 μM BA, 1 h; 1.5% sucrose
Method: (§8) Potato cv. Désirée plants were cultivated under standard in vitro conditions at a long (16 h) day for 5–6 weeks on liquid MS medium containing 1.5% or 5% sucrose. For hormone treatment, the medium was replaced with the same one supplemented with N^6-benzyladenine (BA, 1 μM). Tubes were inverted several times to assure uniform plant wetting and then incubated for 1 h under standard conditions. Finally, plant organs (leaves, stems, roots, tubers) were isolated and immediately frozen in liquid nitrogen. Control plants were treated in the same way but without hormone. Total RNA was isolated by the Trizol method ([Brenner et al., 2005]), and served as the template for cDNA synthesis by reverse transcription (Invitrogen). All RNA samples were treated with RNase-free DNase I. The resulting cDNA was checked for genomic DNA contamination by PCR with primers differentiating cDNA and genomic DNA. The band derived from genomic DNA was absent in the separating gel. Expression of genes encoding predicted proteins of the CK signaling system was determined by qRT-PCR. Potato housekeeping genes StEF1α (elongation factor 1-α, AB061263) and StCYC (cyclophilin, AF126551) were used as reference genes ([Nicot et al., 2005]). […]
To validate the results of CK treatment experiments, the effect of CK administration on the transcript level of the genes of type A response regulator (RR-A) genes was analysed. […]

StHK4 expression = experiment: qRT-PCR of CK receptor gene expression after BA treatment of potato plants; format: in vivo, Solanum tuberosum; settings: leaves; 1.5% sucrose; 1 μM BA, 1 h; on average
Method: as §8
At 1.5% sucrose, the up-regulation (on average, 2.5-fold) of StHK4 expression was regularly recorded, but only in leaves (Fig. 8). […]

[1] = molecular target: StHKs (StHK2a, StHK3aSM, StHK4a, StHK4b); experiment: Competitive binding, summary over the analysed StHKs; set-up: species or system Solanum tuberosum; settings: span over StHK2a, read-out: apparent Kd, all analysed StHKs
Method: as §3
as §4, with “In aggregate, we tested four putative receptors belonging to all three clades: StHK2a, StHK3a (sensory module, further designated as StHK3aSM), StHK4a, and StHK4b.” left out
Different CKs are usually present in the plant: trans- and cis-zeatins (tZ and cZ), isopentenyladenine (iP), and dihydrozeatin (DZ). […] Based on the obtained competition curves (Supplementary Fig. S8), the apparent Kd values were determined for each ligand as described ([Lomin and Romanov, 2008]). We analysed the interaction of StHKs with six CKs, including five natural ones as well as the synthetic urea-type CK thidiazuron (Table 3).

[2] = competition with labeled trans-zeatin (tZ value from saturation/Scatchard), mean ± SE, read-out: Apparent Kd StHK4b
[3] = competition with labeled trans-zeatin (tZ value from saturation/Scatchard), mean ± SE, read-out: Apparent Kd StHK4a
[4] = sensory module, competition with labeled trans-zeatin (tZ value from saturation/Scatchard), mean ± SE, read-out: Apparent Kd StHK3a SM
[5] = competition with labeled trans-zeatin (tZ value from saturation/Scatchard); mean ± SE; read-out: Apparent Kd StHK2a

Compound: c1ccc(CNc2ncnc3nc[nH]c23)cc1 [N ^6-Benzyladenine]
expression of StRR-A genes (StRR-A genes): rapid and reliable increase
up-regulation of StHK4 expression (BA/control) (StHK4 expression): 2.5 fold
Kd (StHK4b): 0.063 ± 0.012 µM
Kd (StHK4a): 0.055 ± 0.007 µM
Kd (StHK3aSM; Apparent Kd StHK3a SM, sensory module, competition with labeled trans-zeatin (tZ value from saturation/Scatchard), mean ± SE): 0.049 ± 0.007 µM
Kd (StHK2a; read-out: Apparent Kd StHK2a; competition with labeled trans-zeatin (tZ value from saturation/Scatchard); mean ± SE): 0.045 ± 0.0035 µM

Compound: CC(C)=CCNc1ncnc2nc[nH]c12 [N ^6-Isopentenyladenine]
Kd (StHK4b; [2]): 0.0025 ± 0.0003 µM
Kd (StHK4a; [3]): 0.0021 ± 0.0002 µM
Kd (StHK3aSM; [4]): 0.0052 ± 0.0008 µM
Kd (StHK2a; [5]): 0.0024 ± 0.0002 µM

Compound: O=C(Nc1ccccc1)Nc1cnns1 [Thidiazuron]
Kd (StHK4b; [2]): 0.0172 ± 0.0025 µM
Kd (StHK4a; [3]): 0.0126 ± 0.0019 µM
Kd (StHK3aSM; [4]): 0.0023 ± 0.0005 µM
Kd (StHK2a; [5]): 0.0014 ± 4e-05 µM

Compound: C/C(=C\CNc1ncnc2[nH]cnc12)CO [trans-Zeatin]
Kd (StHK4b; [2]): 0.003 ± 0.0003 µM
decrease of ligand binding at pH 5, StHK4b (StHK4b; pH 5): about 3 fold
Kd (StHK4a; [3]): 0.0025 ± 0.0007 µM
decrease of ligand binding at pH 5, StHK4a (StHK4a; pH 5): about 3 fold
pH of maximal trans-zeatin binding, StHK3aSM (StHK3aSM): 7
reduction of binding at pH 5 (factor), StHK3aSM (StHK3aSM): 5
Kd (StHK3aSM; [4]): 0.0047 ± 0.0006 µM
pH of maximal trans-zeatin binding, StHK2a (StHK2a): 7.5
reduction of binding at pH 5 (factor), StHK2a (StHK2a): 2
Kd (StHK2a; [5]): 0.0026 ± 0.0003 µM

More lines, now with the values ahead:

Kd (StHK4b; [2]): 0.227 ± 0.033 µM
Kd (StHK4a; [3]): 0.178 ± 0.037 µM
Kd (StHK3aSM; [4]): ~0.021 µM and 0.021 µM
Kd (StHK2a; [5]): 0.169 ± 0.018 µM
Compound: CC(CO)CCNc1ncnc2nc[nH]c12 (stereo not drawn) [Dihydrozeatin]

Kd (StHK4b; read-out: Apparent Kd StHK4b): 0.129 ± 0.019 µM
Kd (StHK4a; read-out: Apparent Kd StHK4a): 0.106 ± 0.022 µM
Kd (StHK3aSM; read-out: Apparent Kd StHK3a SM): 0.11 ± 0.039 µM
Kd (StHK2a; read-out: Apparent Kd StHK2a): 0.102 ± 0.007 µM
Kd [1]: > 0.1 µM
Compound: C/C(=C/CNc1ncnc2nc[nH]c12)CO [cis-Zeatin]
